Assay results taken from patent publication US10759783B2, “Biaryl inhibitors of Bruton'S tyrosine kinase” (BIOGEN MA INC., priority 2013, dated 2020).
pIC50: −log10 of the molar value.

Columns and labels:
[1] = target: BTK (phospho-BTK) in human whole blood (Homo sapiens, UniProt Q06187); assay: In vitro PD assay in human whole blood (pBTK assay)
BTK enzyme = target: T1, BTK enzyme (Homo sapiens, UniProt Q06187); assay: In vitro BTK kinase assay: BTK-POLYGAT-LS assay; format: biochemical; conditions: ATP 10 μM, read-out: IC50 (10uMATP)
T1 construct: purchased Upstate 14-552
T1 sequence (Q06187 whole entry): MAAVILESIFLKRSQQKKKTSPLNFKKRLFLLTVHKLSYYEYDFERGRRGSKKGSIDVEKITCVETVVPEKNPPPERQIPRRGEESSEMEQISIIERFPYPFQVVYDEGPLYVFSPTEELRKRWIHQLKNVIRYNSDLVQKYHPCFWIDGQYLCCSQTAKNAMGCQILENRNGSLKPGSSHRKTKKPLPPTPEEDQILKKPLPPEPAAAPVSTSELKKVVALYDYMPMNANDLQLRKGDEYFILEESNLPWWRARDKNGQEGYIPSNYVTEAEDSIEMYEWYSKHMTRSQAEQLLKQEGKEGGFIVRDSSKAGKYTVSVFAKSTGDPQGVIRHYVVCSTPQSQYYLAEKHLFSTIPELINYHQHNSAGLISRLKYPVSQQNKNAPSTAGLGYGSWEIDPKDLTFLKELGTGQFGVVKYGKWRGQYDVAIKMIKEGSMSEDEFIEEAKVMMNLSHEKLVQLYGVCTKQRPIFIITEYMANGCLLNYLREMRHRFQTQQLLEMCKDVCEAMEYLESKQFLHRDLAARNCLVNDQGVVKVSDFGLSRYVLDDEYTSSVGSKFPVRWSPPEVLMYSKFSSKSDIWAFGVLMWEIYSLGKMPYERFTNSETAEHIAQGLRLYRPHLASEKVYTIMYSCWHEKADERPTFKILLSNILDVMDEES
Method in brief: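 Human BTK activity was measured with final 10 μM ATP and 100 nM polyGAT substrate in pH 7.5 Tris buffer with 10 mM MgCl2, DTT, Triton X-100 and casein.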

BTK (phospho-BTK) in human whole blood, sequence (Q06187 whole entry): as above

## Cc1cc(-c2cc(Nc3ccn(C4CCN(C)CC4)n3)ncn2)ccc1CNC(=O)c1cnc(C(C)(C)C)s1 [Example I-358, 2-tert-butyl-N-[[2-methyl-4-[6-[[1-(1-methyl-4-piperidyl)pyrazol-3-yl]amino]pyrimidin-4-yl]phenyl]methyl]thiazole-5-carboxamide]
[1]
  pIC50: > 6.30
BTK enzyme
  pIC50: > 8.00

## Cn1cc(Nc2nccc(-c3ccc4c(c3)CCCC4NC(=O)N3CC(OC(C)(C)C)C3)n2)cn1 (stereo not drawn) [Example I-359, 3-tert-butoxy-N-[6-[2-[(1-methylpyrazol-4-yl)amino]pyrimidin-4-yl]tetralin-1-yl]azetidine-1-carboxamide]
[1]
  pIC50: > 6.30
BTK enzyme
  pIC50: > 8.00

## CCn1cc(Nc2nccc(-c3ccc(CNC(=O)N4CC(OC(C)C)C4)c(C)c3)n2)cn1 [Example I-360, N-[[4-[2-[(1-ethylpyrazol-4-yl)amino]pyrimidin-4-yl]-2-methyl-phenyl]methyl]-3-isopropoxy-azetidine-1-carboxamideacid]
[1]
  pIC50: > 6.30
BTK enzyme
  pIC50: > 8.00
